Laboratory results: US6337351B1, “Pharmaceutical compositions and methods for use” (Targacept, Inc., priority 1998, dated 2002)

Columns and labels:
[1] = tested on: dopamine release; experiment: Dopamine release; assay type: cell-based; settings: for Emax: amount released relative to (S)-(-)-nicotine
Method: Determination of Dopamine Release
Dopamine release was measured using the techniques described in U.S. Pat. No. 5,597,919 to Dull et al. Release is expressed as a percentage of release obtained with a concentration of (S)-(−)-nicotine resulting in maximal effects. Reported EC50 values are expressed in nM, and Emax values represent the amount released relative to (S)-(−)-nicotine on a percentage basis.

[2] = target: T1, muscle-type nicotinic acetylcholine receptors (Homo sapiens, UniProt P02708+P07510+Q07001); experiment: Interaction with muscle receptors; assay type: cell-based; settings: at a concentration of 100 uM; relative to maximal activation by (S)-(-)-nicotine
T1 construct: cell preparations expressing muscle-type nicotinic acetylcholine receptors; endogenous in cells
T1 sequence (P02708 21-457): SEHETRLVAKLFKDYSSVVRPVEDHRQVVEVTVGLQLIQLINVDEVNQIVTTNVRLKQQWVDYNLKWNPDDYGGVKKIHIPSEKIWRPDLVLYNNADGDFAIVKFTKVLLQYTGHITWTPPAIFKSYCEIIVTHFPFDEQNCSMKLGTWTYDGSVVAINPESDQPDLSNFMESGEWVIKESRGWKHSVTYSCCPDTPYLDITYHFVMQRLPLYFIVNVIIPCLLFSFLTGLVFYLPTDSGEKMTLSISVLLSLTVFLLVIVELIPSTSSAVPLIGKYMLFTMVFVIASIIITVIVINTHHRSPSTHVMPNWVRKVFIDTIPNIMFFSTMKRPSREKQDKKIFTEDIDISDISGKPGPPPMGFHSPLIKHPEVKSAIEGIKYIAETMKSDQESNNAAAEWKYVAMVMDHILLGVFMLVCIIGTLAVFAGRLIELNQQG
T1 sequence (P11230 24-501 partner): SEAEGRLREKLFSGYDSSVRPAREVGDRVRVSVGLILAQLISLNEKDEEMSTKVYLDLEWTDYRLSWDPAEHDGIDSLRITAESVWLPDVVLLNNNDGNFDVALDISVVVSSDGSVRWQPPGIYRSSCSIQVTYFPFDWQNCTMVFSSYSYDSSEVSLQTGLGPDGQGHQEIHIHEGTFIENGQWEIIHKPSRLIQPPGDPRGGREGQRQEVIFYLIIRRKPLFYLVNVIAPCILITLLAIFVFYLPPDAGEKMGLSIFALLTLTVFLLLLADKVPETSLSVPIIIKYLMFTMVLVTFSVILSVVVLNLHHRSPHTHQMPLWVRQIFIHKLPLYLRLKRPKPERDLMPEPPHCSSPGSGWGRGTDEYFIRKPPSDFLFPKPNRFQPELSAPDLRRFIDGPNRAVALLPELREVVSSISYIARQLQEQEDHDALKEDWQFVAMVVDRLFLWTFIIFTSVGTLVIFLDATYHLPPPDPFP
T1 sequence (Q07001 22-517): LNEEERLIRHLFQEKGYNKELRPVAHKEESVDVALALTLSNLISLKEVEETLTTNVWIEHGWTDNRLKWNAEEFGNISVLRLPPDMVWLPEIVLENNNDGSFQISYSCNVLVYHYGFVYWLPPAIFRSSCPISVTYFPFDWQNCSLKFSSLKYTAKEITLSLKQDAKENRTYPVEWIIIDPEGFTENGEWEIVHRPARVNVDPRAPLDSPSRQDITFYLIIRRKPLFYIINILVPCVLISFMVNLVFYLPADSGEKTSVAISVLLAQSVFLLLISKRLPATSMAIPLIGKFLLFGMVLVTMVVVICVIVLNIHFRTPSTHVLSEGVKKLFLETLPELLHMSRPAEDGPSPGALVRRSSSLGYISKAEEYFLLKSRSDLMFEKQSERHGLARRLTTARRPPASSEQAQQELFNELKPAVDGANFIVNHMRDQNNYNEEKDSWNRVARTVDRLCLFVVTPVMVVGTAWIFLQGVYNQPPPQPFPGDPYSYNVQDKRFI
T1 sequence (P07510 23-517): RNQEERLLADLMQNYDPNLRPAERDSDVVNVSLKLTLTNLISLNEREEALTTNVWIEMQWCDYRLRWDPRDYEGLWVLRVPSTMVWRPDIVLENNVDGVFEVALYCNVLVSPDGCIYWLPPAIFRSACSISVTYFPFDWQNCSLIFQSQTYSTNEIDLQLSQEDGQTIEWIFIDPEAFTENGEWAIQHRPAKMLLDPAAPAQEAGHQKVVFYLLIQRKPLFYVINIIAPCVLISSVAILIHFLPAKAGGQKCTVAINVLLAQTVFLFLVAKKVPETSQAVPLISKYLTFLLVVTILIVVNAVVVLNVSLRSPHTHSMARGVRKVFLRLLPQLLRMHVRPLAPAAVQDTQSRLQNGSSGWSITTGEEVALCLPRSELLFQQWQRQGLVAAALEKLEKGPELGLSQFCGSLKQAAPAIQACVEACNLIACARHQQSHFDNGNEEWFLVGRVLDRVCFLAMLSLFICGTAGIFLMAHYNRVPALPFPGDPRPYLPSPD
From the text: The compounds of the present invention, when employed in effective amounts in accordance with the method of the present invention, lack the ability to elicit activation of nicotinic receptors of human muscle to any significant degree. […] Generally, typical preferred compounds useful in carrying the present invention activate isotopic rubidium ion flux by less than 15 percent, often by less than 5 percent, of that maximally provided by S(−) nicotine.
Determination of Interaction with Muscle Receptors
(§1) The determination of the interaction of the compounds with muscle receptors was carried out in accordance with the techniques described in U.S. Pat. No. 5,597,919 to Dull et al. The maximal activation for individual compounds (Emax) was determined as a percentage of the maximal activation induced by (S)-(−)-nicotine. Reported Emax values represent the amount released relative to (S)-(−)-nicotine on a percentage basis.

[3] = tested on: ganglionic-type nicotinic acetylcholine receptors; experiment: Interaction with ganglion receptors; assay type: cell-based; settings: at a concentration of 100 uM; relative to maximal activation by (S)-(-)-nicotine
From the text: By this is meant that a particular dose of compound resulting in prevention and/or treatment of a CNS disorder, is essentially ineffective in eliciting activation of certain ganglionic-type nicotinic receptors. […] As such, such compounds have poor ability to cause isotopic rubidium ion flux through nicotinic receptors in cell preparations derived from the adrenal gland. Generally, typical preferred compounds useful in carrying out the present invention activate isotopic rubidium ion flux by less than 15 percent, often by less than 5 percent, of that maximally provided by S(−) nicotine.
Determination of Interaction with Ganglion Receptors
as §1, with “ganglionic” for “muscle”

[4] = target: CNS nicotinic receptors (Rattus norvegicus, UniProt P09483+P12390); experiment: Binding to relevant receptor sites; settings: inhibition constants calculated from IC50 values by the method of Cheng et al.
CNS nicotinic receptors, sequence (P09483 31-630): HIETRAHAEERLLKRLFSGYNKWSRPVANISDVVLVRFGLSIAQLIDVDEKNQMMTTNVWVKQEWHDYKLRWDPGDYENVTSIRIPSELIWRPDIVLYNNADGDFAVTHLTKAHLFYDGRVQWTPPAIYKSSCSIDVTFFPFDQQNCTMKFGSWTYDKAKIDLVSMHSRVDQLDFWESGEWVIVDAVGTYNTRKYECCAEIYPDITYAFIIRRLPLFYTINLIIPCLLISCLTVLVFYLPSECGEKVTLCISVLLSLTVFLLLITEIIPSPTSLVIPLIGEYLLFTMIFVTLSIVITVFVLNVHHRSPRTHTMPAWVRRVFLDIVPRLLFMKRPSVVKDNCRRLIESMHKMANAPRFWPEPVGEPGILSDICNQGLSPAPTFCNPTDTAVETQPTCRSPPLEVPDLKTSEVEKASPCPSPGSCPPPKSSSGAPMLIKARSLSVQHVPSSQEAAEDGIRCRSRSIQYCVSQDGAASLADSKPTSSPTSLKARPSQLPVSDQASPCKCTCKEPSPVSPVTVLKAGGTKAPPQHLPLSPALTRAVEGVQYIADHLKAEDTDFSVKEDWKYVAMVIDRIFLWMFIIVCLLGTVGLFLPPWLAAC
CNS nicotinic receptors, sequence (P12390 25-500): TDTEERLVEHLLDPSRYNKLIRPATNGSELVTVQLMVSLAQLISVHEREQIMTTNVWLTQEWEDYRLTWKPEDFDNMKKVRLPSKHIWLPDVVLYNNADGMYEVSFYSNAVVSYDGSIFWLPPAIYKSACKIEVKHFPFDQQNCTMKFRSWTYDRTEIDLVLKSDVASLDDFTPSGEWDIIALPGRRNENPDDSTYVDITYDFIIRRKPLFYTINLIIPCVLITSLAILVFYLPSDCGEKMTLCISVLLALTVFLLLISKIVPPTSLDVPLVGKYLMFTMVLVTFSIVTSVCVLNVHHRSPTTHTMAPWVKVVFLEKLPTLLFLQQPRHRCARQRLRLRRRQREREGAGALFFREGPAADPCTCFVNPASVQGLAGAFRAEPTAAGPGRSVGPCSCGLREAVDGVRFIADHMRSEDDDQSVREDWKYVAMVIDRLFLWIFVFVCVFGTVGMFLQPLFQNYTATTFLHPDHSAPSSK
Method: Determination of Binding to Relevant Receptor Sites
Binding of the compounds to relevant receptor sites was determined in accordance with the techniques described in U.S. Pat. No. 5,597,919 to Dull et al. Inhibition constants (Ki values), reported in nM, were calculated from the IC50 values using the method of Cheng et al., Biochem, Pharmacol. 22:3099 (1973).

Molecule	EC50 [1] [µM]	Emax [1] [%]	Emax at 100 µM [2] [%]	Emax at ganglionic-type receptors [3] [%]	Ki [4] [µM]
NCC/C=C/c1cccc(N)c1 [Sample No. 1, (E)-4-(3-aminophenyl)-3-buten-1-amine]	12.6	74	0	4	
CNCC/C=C/c1cccc(N)c1 [Sample No. 2, (E)-N-methyl-4-(3-aminophenyl)-3-buten-1-amine]	0.913	78	7	3	
CNC(C)C/C=C/c1cccc(N)c1 (centres unmarked) [Sample No. 3, (E)-N-methyl-5-(3-aminophenyl)-4-penten-2-amine]	0.92	78	2	6	
(4E)-N-methyl-5-(3,4-methylenedioxyphenyl)-4-penten-2-amine hemigalactarate [Sample No. 4]					11.6
(4E)-N-methyl-5-(3-acetamido-4-methylphenyl)-4-penten-2-amine hemigalactarate [Sample No. 10]					10
(4E)-N-methyl-5-(3-amino-4-methylphenyl)-4-penten-2-amine hemigalactarate [Sample No. 9]					3.3
(4E)-N-methyl-5-(3-fluorophenyl)-4-penten-2-amine hemigalactarate [Sample No. 6]					5.69
(4E)-N-methyl-5-(4-methyl-3-nitrophenyl)-4-penten-2-amine hemigalactarate [Sample No. 7]					6.44
